Data as given in ChEMBL document CHEMBL3112450, “Synthesis and in vitro antitumor evaluation of primary amine substituted quinazoline linked benzimidazole” (Bioorg Med Chem Lett, 2014).

Test system: M14
Test: Cytotoxicity against human M14 cells assessed as cell growth at 10^-5 M after 48 hrs by SRB assay
Assay type: functional
Details: M14, 48 h, read-out: Activity
Molecule `C=CCn1c(C)nc2ccc(Nc3nc(Nc4ccc5nc(C)n(CC=C)c5c4)c4ccccc4n3)cc21` has a growth at 10 µM of -95%.

Test system: MOLT-4
Test: Cytotoxicity against human MOLT4 cells assessed as cell growth at 10^-5 M after 48 hrs by SRB assay
Assay type: functional
Details: MOLT-4, 48 h, read-out: Activity
In the case of `C=CCn1c(C)nc2ccc(Nc3nc(Nc4ccc5nc(C)n(CC=C)c5c4)c4ccccc4n3)cc21`, the growth at 10 µM was -45.5%.

Test system: MDA-MB-435
Test: Cytotoxicity against human MDA-MB-435 cells assessed as cell growth at 10^-4 M after 48 hrs by SRB assay
Assay type: functional
Details: MDA-MB-435, 48 h, read-out: Activity
`C=CCn1c(C)nc2ccc(Nc3nc(Nc4ccc5nc(C)n(CC=C)c5c4)c4ccccc4n3)cc21` showed a growth at 100 µM of -5%.

Test system: NCI-H522
Test: Cytotoxicity against human NCI-H522 cells assessed as cell growth at 10^-5 M after 48 hrs by SRB assay
Assay type: functional
Details: NCI-H522, 48 h, read-out: Activity
`C=CCn1c(C)nc2ccc(Nc3nc(Nc4ccc5nc(C)n(CC=C)c5c4)c4ccccc4n3)cc21` showed a growth at 10 µM of -94%.

Test system: SNB-19
Test: Cytotoxicity against human SNB19 cells assessed as cell growth at 10^-6 M after 48 hrs by SRB assay
Assay type: functional
Details: SNB-19, 48 h, read-out: Activity
For `C=CCn1c(C)nc2ccc(Nc3nc(Nc4ccc5nc(C)n(CC=C)c5c4)c4ccccc4n3)cc21`, the growth at 1 µM was 85%.

Test system: IGROV-1
Test: Cytotoxicity against human IGROV1 cells assessed as cell growth at 10^-5 M after 48 hrs by SRB assay
Assay type: functional
Details: IGROV-1, 48 h, read-out: Activity
With `C=CCn1c(C)nc2ccc(Nc3nc(Nc4ccc5nc(C)n(CC=C)c5c4)c4ccccc4n3)cc21` the growth at 10 µM was -87%.

Test system: OVCAR-8
Test: Cytotoxicity against human OVCAR8 cells assessed as cell growth at 10^-4 M after 48 hrs by SRB assay
Assay type: functional
Details: OVCAR-8, 48 h, read-out: Activity
With `C=CCn1c(C)nc2ccc(Nc3nc(Nc4ccc5nc(C)n(CC=C)c5c4)c4ccccc4n3)cc21` the growth at 100 µM was -18%.

Test system: K562
Test: Cytotoxicity against human K562 cells assessed as cell growth at 10^-4 M after 48 hrs by SRB assay
Assay type: functional
Details: K562, 48 h, read-out: Activity
For `C=CCn1c(C)nc2ccc(Nc3nc(Nc4ccc5nc(C)n(CC=C)c5c4)c4ccccc4n3)cc21`, the growth at 100 µM was 1%.

Test system: not listed separately
Test: Cytotoxicity against human UO31 cells assessed as cell growth at 10^-5 M after 48 hrs by SRB assay
Assay type: functional
Details: UO-31, 48 h, read-out: Activity
Molecule `C=CCn1c(C)nc2ccc(Nc3nc(Nc4ccc5nc(C)n(CC=C)c5c4)c4ccccc4n3)cc21` has a growth at 10 µM of -91.4%.

Test system: 786-0
Test: Cytotoxicity against human 786-0 cells assessed as cell growth at 10^-6 M after 48 hrs by SRB assay
Assay type: functional
Details: 786-0, 48 h, read-out: Activity
`C=CCn1c(C)nc2ccc(Nc3nc(Nc4ccc5nc(C)n(CC=C)c5c4)c4ccccc4n3)cc21` showed a growth at 1 µM of 92%.

Test system: not listed separately
Test: Cytotoxicity against human OVCAR5 cells assessed as cell growth at 10^-5 M after 48 hrs by SRB assay
Assay type: functional
Details: OVCAR-5, 48 h, read-out: Activity
Work on `C=CCn1c(C)nc2ccc(Nc3nc(Nc4ccc5nc(C)n(CC=C)c5c4)c4ccccc4n3)cc21` yielded a growth at 10 µM of -98%.

Test system: MDA-MB-435
Test: Cytotoxicity against human MDA-MB-435 cells assessed as cell growth at 10^-5 M after 48 hrs by SRB assay
Assay type: functional
Details: MDA-MB-435, 48 h, read-out: Activity
Work on `C=CCn1c(C)nc2ccc(Nc3nc(Nc4ccc5nc(C)n(CC=C)c5c4)c4ccccc4n3)cc21` yielded a growth at 10 µM of -84%.

Test system: SK-MEL-2
Test: Cytotoxicity against human SK-MEL-2 cells assessed as cell growth at 10^-6 M after 48 hrs by SRB assay
Assay type: functional
Details: SK-MEL-2, 48 h, read-out: Activity
With `C=CCn1c(C)nc2ccc(Nc3nc(Nc4ccc5nc(C)n(CC=C)c5c4)c4ccccc4n3)cc21` the growth at 1 µM was 107%.

Test system: NCI-H226
Test: Cytotoxicity against human NCI-H226 cells assessed as cell growth at 10^-5 M after 48 hrs by SRB assay
Assay type: functional
Details: NCI-H226, 48 h, read-out: Activity
For `C=CCn1c(C)nc2ccc(Nc3nc(Nc4ccc5nc(C)n(CC=C)c5c4)c4ccccc4n3)cc21`, the growth at 10 µM was -87%.

Test system: not listed separately
Test: Cytotoxicity against human NCI-ADR-RES cells assessed as cell growth at 10^-5 M after 48 hrs by SRB assay
Assay type: functional
Details: read-out: Activity
For `C=CCn1c(C)nc2ccc(Nc3nc(Nc4ccc5nc(C)n(CC=C)c5c4)c4ccccc4n3)cc21`, the growth at 10 µM was -25%.

Test system: HCC 2998
Test: Cytotoxicity against human HCC2998 cells assessed as cell growth at 10^-5 M after 48 hrs by SRB assay
Assay type: functional
Details: HCC 2998, 48 h, read-out: Activity
For `C=CCn1c(C)nc2ccc(Nc3nc(Nc4ccc5nc(C)n(CC=C)c5c4)c4ccccc4n3)cc21`, the growth at 10 µM was -100%.

Test system: SF-295
Test: Cytotoxicity against human SF295 cells assessed as cell growth at 10^-5 M after 48 hrs by SRB assay
Assay type: functional
Details: SF-295, 48 h, read-out: Activity
In the case of `C=CCn1c(C)nc2ccc(Nc3nc(Nc4ccc5nc(C)n(CC=C)c5c4)c4ccccc4n3)cc21`, the growth at 10 µM was -80%.

Test system: MDA-MB-231
Test: Cytotoxicity against human MDA-MB-231 cells assessed as cell growth at 10^-5 M after 48 hrs by SRB assay
Assay type: functional
Details: MDA-MB-231, 48 h, read-out: Activity
Work on `C=CCn1c(C)nc2ccc(Nc3nc(Nc4ccc5nc(C)n(CC=C)c5c4)c4ccccc4n3)cc21` yielded a growth at 10 µM of -100%.

Test system: SK-MEL-5
Test: Cytotoxicity against human SK-MEL-5 cells after 48 hrs by SRB assay
Assay type: functional
Details: SK-MEL-5, 48 h
Molecule `C=CCn1c(C)nc2ccc(Nc3nc(Nc4ccc5nc(C)n(CC=C)c5c4)c4ccccc4n3)cc21` has a GI50 of 1650 nM.
